# Assay results as given in ChEMBL document CHEMBL4808232, “Discovery of IDO1 inhibitors containing a decahydroquinoline, decahydro-1,6-naphthyridine, or octahydro-1H-pyrrolo[3,2-c]pyridine scaffold” (Bioorg Med Chem Lett, 2021).
# Calls of active or inactive are those of the source. The calls are words filed in the database; no cut-off is given here.
# Experiments:
# [1] = molecular target: T1, Indoleamine 2,3-dioxygenase 1 (Homo sapiens, UniProt P14902); assay: Inhibition of IDO1 in human HeLa cells assessed as production of N-formylkynurenine using tryptophan as substrate in presence of inactivated fetal bovine serum; type: cell-based
# [2] = molecular target: T1, Indoleamine 2,3-dioxygenase 1; assay: Inhibition of IDO1 in human whole blood assessed as unbound concentration; type: tissue-based
# [3] = MRT in male Wistar Han rat at 0.05 mg/kg, iv; type: ADME, organism-based; conditions: in vivo
# [4] = Unbound clearance in male Wistar Han rat at 0.05 mg/kg, iv; type: ADME, organism-based; conditions: in vivo
# [5] = Clearance in male Wistar Han rats at 0.05 mg/kg, iv; type: ADME, organism-based; conditions: rat, in vivo
# [6] = molecular target: T1, Indoleamine 2,3-dioxygenase 1; assay: Inhibition of IDO1 in human whole blood; type: tissue-based
# [7] = molecular target: Tryptophan 2,3-dioxygenase (Homo sapiens) (UniProt P48775); assay: Inhibition of TDO in human SW48 cells; type: cell-based
# [8] = male, Wistar Han, read-out: MRT
# Sequence of Tryptophan 2,3-dioxygenase (Homo sapiens) (P48775 whole entry, looked up): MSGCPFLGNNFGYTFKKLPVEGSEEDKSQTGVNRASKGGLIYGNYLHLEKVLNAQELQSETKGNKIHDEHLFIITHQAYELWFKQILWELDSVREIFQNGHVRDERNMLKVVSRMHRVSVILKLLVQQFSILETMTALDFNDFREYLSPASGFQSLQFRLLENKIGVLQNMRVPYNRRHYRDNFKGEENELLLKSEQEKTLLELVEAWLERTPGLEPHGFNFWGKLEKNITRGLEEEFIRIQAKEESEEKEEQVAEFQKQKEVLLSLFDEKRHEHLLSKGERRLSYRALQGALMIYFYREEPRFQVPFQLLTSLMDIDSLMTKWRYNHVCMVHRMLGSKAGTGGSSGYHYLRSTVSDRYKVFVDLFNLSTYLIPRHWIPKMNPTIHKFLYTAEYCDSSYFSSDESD
# T1 sequence (P14902 whole entry): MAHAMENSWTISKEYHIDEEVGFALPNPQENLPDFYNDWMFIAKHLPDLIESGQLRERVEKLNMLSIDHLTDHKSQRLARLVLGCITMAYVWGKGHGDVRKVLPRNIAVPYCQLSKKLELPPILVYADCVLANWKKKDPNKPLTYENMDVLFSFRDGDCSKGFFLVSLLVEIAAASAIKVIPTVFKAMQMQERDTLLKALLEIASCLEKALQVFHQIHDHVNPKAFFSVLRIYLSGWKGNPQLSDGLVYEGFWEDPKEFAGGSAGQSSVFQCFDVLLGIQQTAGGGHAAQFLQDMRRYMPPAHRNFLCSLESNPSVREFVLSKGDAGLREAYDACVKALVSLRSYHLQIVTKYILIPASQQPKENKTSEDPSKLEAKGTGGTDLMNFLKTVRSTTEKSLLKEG
IC50 [1],inhibition [7],SMILES,other results
1 nM,–,C[C@@H](C(=O)Nc1ccc(F)cc1)C1CCC2C(CCCN2C(=O)c2cccc(Cl)c2)C1 (stereo in doubt; 3) [listing 1 of 2 here],"IC50 [2]: 0.13 nM; MRT [3, 8]: 1.6 h; CL free [4]: 4427 mL/min/kg; clearance [5]: 51 mL/min/kg; IC50 [6]: 32 nM"
–,inactive,C[C@@H](C(=O)Nc1ccc(F)cc1)C1CCC2C(CCCN2C(=O)c2cccc(Cl)c2)C1 (stereo in doubt; 3) [listing 2 of 2 here],–
1.9 nM,–,C[C@@H](C(=O)Nc1ccc(F)cc1)C1CCC2C(CCCN2C(=O)c2cccc(Cl)c2)C1 (stereo in doubt; 4) [listing 1 of 2 here],–
–,inactive,C[C@@H](C(=O)Nc1ccc(F)cc1)C1CCC2C(CCCN2C(=O)c2cccc(Cl)c2)C1 (stereo in doubt; 4) [listing 2 of 2 here],–
2.1 nM,–,C[C@@H](C(=O)Nc1ccc(F)cc1)C1CCC2C(CCCN2C(=O)c2cccc(Cl)c2)C1 (stereo in doubt; 5) [listing 1 of 2 here],IC50 [6]: 312 nM
–,inactive,C[C@@H](C(=O)Nc1ccc(F)cc1)C1CCC2C(CCCN2C(=O)c2cccc(Cl)c2)C1 (stereo in doubt; 5) [listing 2 of 2 here],–
2.3 nM,–,C[C@@H](C(=O)Nc1ccc(F)cc1)C1CCC2C(CCCN2C(=O)c2cccc(Cl)c2)C1 (stereo in doubt; 6) [listing 1 of 2 here],MRT ([3]; 0.05 mg/kg): 1.1 h; CL free [4]: 4484 mL/min/kg
–,inactive,C[C@@H](C(=O)Nc1ccc(F)cc1)C1CCC2C(CCCN2C(=O)c2cccc(Cl)c2)C1 (stereo in doubt; 6) [listing 2 of 2 here],–
2.4 nM,–,O=C(c1cccc(Cl)c1)N1CCCC2CC(C3(C(=O)Nc4ccc(F)cc4)CCC3)CCC21 (stereo in doubt; 7) [listing 1 of 2 here],IC50 [2]: 0.98 nM; IC50 [6]: 123 nM
–,inactive,O=C(c1cccc(Cl)c1)N1CCCC2CC(C3(C(=O)Nc4ccc(F)cc4)CCC3)CCC21 (stereo in doubt; 7) [listing 2 of 2 here],–
3 nM,–,O=C(c1cccc(Cl)c1)N1CCCC2CC(C3(C(=O)Nc4ccc(F)cc4)CCC3)CCC21 (stereo in doubt; 8) [listing 1 of 2 here],–
–,inactive,O=C(c1cccc(Cl)c1)N1CCCC2CC(C3(C(=O)Nc4ccc(F)cc4)CCC3)CCC21 (stereo in doubt; 8) [listing 2 of 2 here],–
7 nM,–,O=C(c1cccc(Cl)c1)N1CCCC2CC(C3(C(=O)Nc4ccc(F)cc4)CCC3)CCC21 (stereo in doubt; 9) [listing 1 of 2 here],–
–,inactive,O=C(c1cccc(Cl)c1)N1CCCC2CC(C3(C(=O)Nc4ccc(F)cc4)CCC3)CCC21 (stereo in doubt; 9) [listing 2 of 2 here],–
14 nM,–,O=C(c1cccc(Cl)c1)N1CCCC2CC(C3(C(=O)Nc4ccc(F)cc4)CCC3)CCC21 (stereo in doubt; 10) [listing 1 of 2 here],–
–,inactive,O=C(c1cccc(Cl)c1)N1CCCC2CC(C3(C(=O)Nc4ccc(F)cc4)CCC3)CCC21 (stereo in doubt; 10) [listing 2 of 2 here],–
107 nM,–,O=C(C1CC1)N1CCCC2CC(C3(C(=O)Nc4ccc(F)cc4)CCC3)CCC21 (stereo in doubt; 11) [listing 1 of 2 here],–
–,inactive,O=C(C1CC1)N1CCCC2CC(C3(C(=O)Nc4ccc(F)cc4)CCC3)CCC21 (stereo in doubt; 11) [listing 2 of 2 here],–
1.5 nM,–,O=C(C1CC1)N1CCCC2CC(C3(C(=O)Nc4ccc(F)cc4)CCC3)CCC21 (stereo in doubt; 12) [listing 1 of 2 here],IC50 [2]: 0.86 nM; IC50 [6]: 15 nM
–,inactive,O=C(C1CC1)N1CCCC2CC(C3(C(=O)Nc4ccc(F)cc4)CCC3)CCC21 (stereo in doubt; 12) [listing 2 of 2 here],–

IC50 [1],inhibition [7],SMILES,other results
19 nM,–,O=C(C1CC1)N1CCCC2CC(C3(C(=O)Nc4ccc(F)cc4)CCC3)CCC21 (stereo in doubt; 13) [listing 1 of 2 here],–
–,inactive,O=C(C1CC1)N1CCCC2CC(C3(C(=O)Nc4ccc(F)cc4)CCC3)CCC21 (stereo in doubt; 13) [listing 2 of 2 here],–
115 nM,–,O=C(C1CC1)N1CCCC2CC(C3(C(=O)Nc4ccc(F)cc4)CCC3)CCC21 (stereo in doubt; 14) [listing 1 of 2 here],–
–,inactive,O=C(C1CC1)N1CCCC2CC(C3(C(=O)Nc4ccc(F)cc4)CCC3)CCC21 (stereo in doubt; 14) [listing 2 of 2 here],–
1.6 nM,–,Cc1nccc(N2CCCC3CC(C4(C(=O)Nc5ccc(F)cc5)CCC4)CCC32)n1 (stereo in doubt; 15) [listing 1 of 2 here],"IC50 [2]: 0.29 nM; MRT [3, 8]: 1.7 h; CL free [4]: 1309 mL/min/kg; IC50 [6]: 10 nM"
–,inactive,Cc1nccc(N2CCCC3CC(C4(C(=O)Nc5ccc(F)cc5)CCC4)CCC32)n1 (stereo in doubt; 15) [listing 2 of 2 here],–
4.2 nM,–,Cc1nccc(N2CCCC3CC(C4(C(=O)Nc5ccc(F)cc5)CCC4)CCC32)n1 (stereo in doubt; 16) [listing 1 of 2 here],MRT ([3]; 0.05 mg/kg): 1.8 h; CL free [4]: 1884 mL/min/kg
–,inactive,Cc1nccc(N2CCCC3CC(C4(C(=O)Nc5ccc(F)cc5)CCC4)CCC32)n1 (stereo in doubt; 16) [listing 2 of 2 here],–
32 nM,–,Cc1nccc(N2CCCC3CC(C4(C(=O)Nc5ccc(F)cc5)CCC4)CCC32)n1 (stereo in doubt; 17) [listing 1 of 2 here],–
–,inactive,Cc1nccc(N2CCCC3CC(C4(C(=O)Nc5ccc(F)cc5)CCC4)CCC32)n1 (stereo in doubt; 17) [listing 2 of 2 here],–
5.2 nM,–,Cc1nccc(N2CCCC3CC(C4(C(=O)Nc5ccc(F)cc5)CCC4)CCC32)n1 (stereo in doubt; 18) [listing 1 of 2 here],–
–,inactive,Cc1nccc(N2CCCC3CC(C4(C(=O)Nc5ccc(F)cc5)CCC4)CCC32)n1 (stereo in doubt; 18) [listing 2 of 2 here],–
1.9 nM,–,O=C(Nc1ccc(F)cc1)C1(C2CCC3C(CCCN3c3ccnc(C(F)(F)F)n3)C2)CCC1 (stereo in doubt; 19) [listing 1 of 2 here],"MRT [3, 8]: 1.9 h; CL free [4]: 13321 mL/min/kg"
–,inactive,O=C(Nc1ccc(F)cc1)C1(C2CCC3C(CCCN3c3ccnc(C(F)(F)F)n3)C2)CCC1 (stereo in doubt; 19) [listing 2 of 2 here],–
1.9 nM,–,O=C(Nc1ccc(F)cc1)C1(C2CCC3C(CCCN3c3ccnc(C(F)(F)F)n3)C2)CCC1 (stereo in doubt; 20) [listing 1 of 2 here],IC50 [2]: 0.1 nM; MRT ([3]; 0.05 mg/kg): 2.7 h; CL free [4]: 9879 mL/min/kg; IC50 [6]: 48 nM
–,inactive,O=C(Nc1ccc(F)cc1)C1(C2CCC3C(CCCN3c3ccnc(C(F)(F)F)n3)C2)CCC1 (stereo in doubt; 20) [listing 2 of 2 here],–
2.6 nM,–,O=C(Nc1ccc(F)cc1)C1(C2CCC3C(CCCN3c3ccnc(C(F)(F)F)n3)C2)CCC1 (stereo in doubt; 21) [listing 1 of 2 here],MRT ([3]; 0.05 mg/kg): 2.9 h; CL free [4]: 7183 mL/min/kg
–,inactive,O=C(Nc1ccc(F)cc1)C1(C2CCC3C(CCCN3c3ccnc(C(F)(F)F)n3)C2)CCC1 (stereo in doubt; 21) [listing 2 of 2 here],–
3.2 nM,–,O=C(Nc1ccc(F)cc1)C1(C2CCC3C(CCCN3c3ccnc(C(F)(F)F)n3)C2)CCC1 (stereo in doubt; 22) [listing 1 of 2 here],MRT ([3]; 0.05 mg/kg): 3.5 h; CL free [4]: 5951 mL/min/kg
–,inactive,O=C(Nc1ccc(F)cc1)C1(C2CCC3C(CCCN3c3ccnc(C(F)(F)F)n3)C2)CCC1 (stereo in doubt; 22) [listing 2 of 2 here],–

IC50 [1],inhibition [7],SMILES,other results
3.9 nM,–,O=C(CN1CCC2C(CCCN2C(=O)c2cccc(Cl)c2)C1)Nc1ccc(F)cc1 (stereo in doubt; 23),–
2 nM,–,O=C(CN1CCC2C(CCCN2C(=O)c2cccc(Cl)c2)C1)Nc1ccc(F)cc1 (stereo in doubt; 24),"MRT [3, 8]: 1.6 h; CL free [4]: 1401 mL/min/kg; clearance [5]: 61 mL/min/kg"
3.7 nM,–,CC(C(=O)Nc1ccc(Cl)cc1)N1CCC2C(CCCN2C(=O)OC2CC2)C1 (stereo in doubt; 25),IC50 [6]: 293 nM
9.1 nM,–,CC(C(=O)Nc1ccc(Cl)cc1)N1CCC2C(CCCN2C(=O)OC2CC2)C1 (stereo in doubt; 26),–
32 nM,–,CC(C(=O)Nc1ccc(Cl)cc1)N1CCC2C(CCCN2C(=O)OC2CC2)C1 (stereo in doubt; 28),–
302 nM,–,Cc1nccc(N2CCCC3CN(C(C)C(=O)Nc4ccc(Cl)cc4)CCC32)n1 (stereo in doubt; 29),–
40 nM,–,Cc1nccc(N2CCCC3CN(C(C)C(=O)Nc4ccc(Cl)cc4)CCC32)n1 (stereo in doubt; 30),–
2.9 nM,–,Cc1nccc(N2CCCC3CN(C(C)C(=O)Nc4ccc(Cl)cc4)CCC32)n1 (stereo in doubt; 31),IC50 [6]: 130 nM
12 nM,–,Cc1nccc(N2CCCC3CN(C(C)C(=O)Nc4ccc(Cl)cc4)CCC32)n1 (stereo in doubt; 32),"MRT [3, 8]: 2.9 h; CL free [4]: 2381 mL/min/kg; clearance [5]: 31 mL/min/kg"
15 nM,–,CC(C(=O)Nc1ccc(Cl)cc1)N1CCC2C(CCCN2c2ccnc(C(F)(F)F)n2)C1 (stereo in doubt; 33),"MRT [3, 8]: 3 h; CL free [4]: 8439 mL/min/kg; clearance [5]: 19 mL/min/kg"
3.6 nM,–,CC(C(=O)Nc1ccc(Cl)cc1)N1CCC2C(CCCN2c2ccnc(C(F)(F)F)n2)C1 (stereo in doubt; 34),CL free [4]: 13004 mL/min/kg; IC50 [6]: 809 nM
430 nM,–,CC(C(=O)Nc1ccc(Cl)cc1)N1CCC2C(CCCN2c2ccnc(C(F)(F)F)n2)C1 (stereo in doubt; 35),–
5.4 nM,–,CC(C(=O)Nc1ccc(Cl)cc1)N1CCC2C(CCCN2c2ccnc(C(F)(F)F)n2)C1 (stereo in doubt; 36),MRT ([3]; 0.05 mg/kg): 3.7 h; CL free [4]: 27767 mL/min/kg; IC50 [6]: 1000 nM
11 nM,–,CC(C(=O)Nc1ccc(Cl)cc1)N1CCC2C(CCN2C(=O)OC2CC2)C1 (stereo in doubt; 37),–
16 nM,–,CC(C(=O)Nc1ccc(Cl)cc1)N1CCC2C(CCN2C(=O)OC2CC2)C1 (stereo in doubt; 38),"MRT [3, 8]: 1.5 h; CL free [4]: 2394 mL/min/kg"
184 nM,–,CC(C(=O)Nc1ccc(Cl)cc1)N1CCC2C(CCN2C(=O)OC2CC2)C1 (stereo in doubt; 39),MRT ([3]; 0.05 mg/kg): 2.8 h; CL free [4]: 664 mL/min/kg
1150 nM,–,CC(C(=O)Nc1ccc(Cl)cc1)N1CCC2C(CCN2C(=O)OC2CC2)C1 (stereo in doubt; 40),–
1050 nM,–,Cc1nccc(-n2ncc3c2CCN(C(C)C(=O)Nc2ccc(Cl)cc2)C3)n1 (stereo in doubt; 41),–
27700 nM,–,Cc1nccc(-n2ncc3c2CCN(C(C)C(=O)Nc2ccc(Cl)cc2)C3)n1 (stereo in doubt; 42),–
